Laboratory results taken from patent US20130338221A1, “PHOTOAGING PROTECTIVE COMPOSITION CONTAINING CHROMENES DERIVED FROM SARGASSUM HORNERI” (PUKYONG NATIONAL UNIVERSITY INDUSTRY-UNIVERSITY C, priority 2012, published 2013).

How the values were obtained:
IL-6 = IL-6 secretion ELISA in UV-A irradiated HDF; assay type: cell-based, human
Method: (§1) For measuring various collagen degradation MMP and inflammatory cytokine, collagen content in a cell, an enzyme-linked immunosorbent assay was used after UV-A irradiation. After irradiating HDF cell with UV-A, the cells were incubated with various concentrations of sample. After 24 h, the supernatants of the HDF cells were collected, and used for testing MMP, cytokine, hyaluronan, and collagen. For testing, Biotrak™ ELISA kits (Amersham Pharmacia Biosciences, England, UK), procollagen ELISA kit (Takara Bio Inc), and Hyaluronan ELISA kits (R&D system) were used according to the manufacturer's instructions.
(§2) To investigate effect of chromenes on the cytokine production in UV-A irradiated dermal fibroblasts, inflammatory cytokine production was measured using ELISA assay (FIGS. 18 to 20).

hyaluronan synthase 1 = assay: Immunofluorescent labeling of hyaluronan synthase 1 after UV-A; assay type: cell-based, human; settings: 10 μM
Method: (§3) Immunostaining is used to determine the subcellular distribution and organization of proteins. Cells were grown in 6-well plates, Aspirate liquid, then cover cells to a depth of 2-3 mm with 4% formaldehyde in PBS for 15 min at room temperature. Aspirate fixative, rinse three times in PBS for 5 minutes each then incubated primary antibody and for overnight at 4° C. Rinse three times in PBS for 5 min each. Incubate specimen in fluorochrome-conjugated secondary antibody diluted in Antibody Dilution Buffer for 1-2 h at room temperature in dark and incubated with Hoechest 33342 (Sigma-Aldrich Co. MO, USA). For best results, examine specimens immediately using appropriate excitation wavelength. For long-term storage, store slides flat at 4° C. protected from light. The image of HDF cells were collected using Leica invented microscopy (DM IRB) with 40× objective and a digital CCD camera (CTR 6000, Leica, Wetzlar, Germany) under fluorescence.
(§4) It has been reported that the exposure to UV-A causes degradation of collagen and fibronectin in the extracellular matrix. […] Results were evaluated through the images of the labeling assay under a fluorescent microscope with the previously mentioned excitation and emission values.

fibronectin = assay: Immunofluorescent labeling of fibronectin after UV-A; assay type: cell-based, human; settings: 10 μM
Method: as §3, §4

MMP-1 = MMP-1 secretion ELISA in UV-A irradiated HDF; assay type: cell-based, human
Method: as §1
(§5) Collagens are known to as main component of the skin and degraded by collagenase MMPs. Among MMPs, MMP-1, MMP-8 and MMP-13 are family of collagenases which are capable of degrading triple-helical fibrillar collagens. […] Therefore, inhibitory effect of chromenes on collagenase MMP secretions from the UV-A irradiated dermal fibroblasts was determined using ELISA assay.

[1] = tested on: cell membrane proteins of HDF cells; assay: Cell membrane protein oxidation (carbonyl groups, DNPH) after UV-A; assay type: cell-based, human
Method: The amount of carbonyl groups in cell membrane proteins was determined to assess the cellular protein oxidation level that is a standard of determining the degree of cell membrane damage. HDF cells were co-cultured with various concentrations of compounds for 24 h after 6 J/cm^2 of UV-A irradiation. Cell were washed three times with PBS and lysed in lysis buffer without reducing agents (25 mM Tris-HCl, pH 7.8, 2 mM EDTA, 180 mM NaCl and 1% Triton X-100). Aliquots of cell lysates were separately incubated then trichloroacetic acid (400 μl from 20% trichloroacetic acid) was added to each reaction mixture and solubilized proteins were precipitated by centrifugation at 3,000 rpm for 15 minutes. Precipitated protein was resuspended in 2% 2,4-dinitrophenylhydrazine (2 mM HCl) and incubated at room temperature for 20 min. The protein was precipitated again with 20% trichloroacetic acid and the pellet was washed three times with ethanol:ethylacetate (1:1 v/v) solution. The pellet was then dissolved in 6 M guanidin hydrochloride (500 μl) and incubated for 15 min at 37° C. After centrifugation at 1,500 g for 5 min, absorbance of the supernatant was recorded against a complementary blank at 370 nm using a GENios® fluorescence microplate reader (Tecan Austria GmbH, Salzburg, Austria).

hyaluronan = assay: Hyaluronan secretion ELISA in UV-A irradiated fibroblasts; assay type: cell-based, human
Method: as §1
Then, we evaluated effect of chromenes on hyaluronan secretion by UV-A irradiation.

TNF-α [2] = assay: TNF-α mRNA and protein expression (RT-PCR, Western blot) in UV-A irradiated HDF; assay type: cell-based, human
Method: Total cellular RNA was isolated using Trizol reagent (Invitrogen Co., CA, USA). The 2 μg of isolated RNA was reverse transcribed into cDNA using oligo-(dT) primer (Promega, Madison, Wis., USA). Target cDNA was amplified using the forward and reverse primer sequences. The amplification was carried out at 95° C. for 45 sec, 60° C. for 50 sec and 72° C. for 60 sec for cycles. After amplification step, extension process proceeded consecutively at 72° C. for 5 min. […] Gels were stained with 1 mg/ml of EtBr and photographed by UV illumination using AlphaEase® gel image analysis software (Alpha Innotech., San Leandro, Calif., USA).
Whole cells were lysed in RIPA buffer (Sigma-Aldrich Corp., St. Louis, USA). After centrifugation, total protein amount of cell lysates was determined using Lowry method (BioRad Laboratories, Hercules, Calif., USA). […] All primary monoclonal antibodies were diluted with TBS-T at 1:1000 ratio. Bound antibodies were detected by horseradish peroxidase-conjugated secondary antibodies for 1 h at room temperature and the immunoreactive proteins were detected using a chemiluminescent ECL assay kit (Amersham Pharmacia Biosciences, England, UK) according to the manufacturer's instructions. Western blot bands were visualized using a LAS3000® Luminescent image analyzer (Fujifilm Life Science, Tokyo, Japan).

[3] = tested on: human dermal fibroblasts (HDF cells); assay: Protective effect on viability of UV-A irradiated dermal fibroblasts (MTT assay); assay type: cell-based
Method: HDF cells were seeded in 24-well plate at a density of 1×10^5 cells/well with DMEM containing 10% FBS, 2 mM gluramine and 100 μg/ml penicillin-streptomycin at 37° C. humidified atmosphere of 5% CO2. After incubation for 24 h, the cells were exposed to UV-A energy at the range of 6 J/cm^2 (365 nm UV-A light source, Bio-Sun lamp, Vilber Lourmat, Marine, France) in 200 μl of phosphate buffered saline (PBS) to each well. After UV-A irradiation, the cells were incubated for 24 h in serum-free DMEM.
Viability level of HDF cell was determined through ability of mitochondria capable of converting 3-(4,5-dimethylthiazol-2-yl)-2,5-diphenyl tetrazolium bromide (MTT) into a insoluble formazan product. Dermal fibroblasts were grown in 96-well plates at a density of 1×10^4 cells/well. After 24 h, after irradiating UV-A (6 J/cm^2) to the cell, the cells were cultured with the chromenes sample or without the chromenes sample at 37° C. humidified atmosphere of 5% CO2. The supernatant medium was removed, and the cells were incubated with 100 μl of MTT (1 mg/ml) for 4 h. The unconvertived MTT was removed, dimethyl sulfoxide (DMSO) was added, and then cell viability was measured at the absorbance at 540 nm using a microplate reader (Tecan Austria GmbH, Austria) to determine the amount of formazan in a cell. Relative cell viability was quantified as a percentage compared to the control group.

type I procollagen = assay: Type I procollagen ELISA in UV-A irradiated HDF; assay type: cell-based, human
Method: as §1
Alterations of collagen have been thought to be a cause of the clinical skin changes of photoaging. The dermis contains predominantly type I collagen (85-90%) and the precursor molecules of collagen are called procollagen, which is synthesized in the form of polypeptide chains of type I collagen in dermal fibroblasts. UV irradiation induces the activity and synthesis of MMP in human skin, which mediate collagen destruction that results in much connective tissue damage. Therefore, we also studied the effects of chromenes on the level of type I procollagen in UVA-irradiated cultured dermal fibroblasts. The procollagen level was determined in the culture medium by ELISA assay.

TNF-α [4] = assay: TNF-α secretion ELISA in UV-A irradiated HDF; assay type: cell-based, human
Method: as §1, §2

[5] = tested on: intracellular reactive oxygen species (ROS) in HDF cells; assay: Intracellular ROS generation by UV-A (DCFH-DA); assay type: cell-based, human
Method: Intracellular formation of reactive oxygen species (ROS) was assessed using oxidation sensitive dye 2′,7′-dichlorofluorescin diacetate (DCFH-DA) as the substrate. HDF cells growing in fluorescence microtiter 96-well plates for 24 h were exposed to UV-A (6 J/cm^2). The exposed cells were loaded with 20 μM DCFH-DA dissolved in PBS and incubated for 30 min in the dark at 37° C. humidified atmosphere of 5% CO2. […] The formation of 2′,7′-dichlorofluorescein (DCF) dissolved in PBS due to oxidation of DCFH in the presence of various ROS was read after every 20 min at the excitation wavelength (Ex) of 485 nm and the emission wavelength (Em) of 535 nm using a fluorescence microplate reader (Tecan Austria GmbH, Salzburg, Austria).
The cell system was labeled with DCFH-DA and followed by UV-A irradiation.

MMP-13 = MMP-13 secretion ELISA in UV-A irradiated HDF; assay type: cell-based, human
Method: as §1, §5

[6] = tested on: intracellular glutathione (GSH) in HDF cells; assay: Intracellular GSH level (mBBr) after UV-A; assay type: cell-based, human
Method: Intracellular glutathione (GSH) level in intact cells was determined using monobromobimane as a thiol-staining reagent. HDF cells were seeded into fluorescence microtiter 96-well plates at a density of 5×10^3 cells/well. Cell were washed three times with PBS and treated with various concentrations of the compounds after 6 J/cm^2 of UV-A irradiation and incubated for 30 min. 0.04 mM of Monobromobimane was added to cells and staining was carried out for 24 h at 37° C. in the dark. After staining fluorescence intensity was measured (excitation and emission: 360 and 465 nm) using a GENios® fluorescence microplate reader (Tecan Austria GmbH, Salzburg, Austria).
GSH is the most abundant low molecular weight thiol inside mammalian cells, and changes in glutathione level directly reflect intracellular redox alterations. To investigate the relationship between the increased ROS and the level of antioxidant materials in cells, the intracellular GSH level was measured.

[7] = tested on: membrane lipid hydroperoxides of HDF cells; assay: Cell membrane lipid peroxidation (DPPP) after UV-A; assay type: cell-based, human
Method: Intracellular lipid hydroperoxide levels were determined by the fluorescence probe, diphenyl-1-pyrenylphosphine (DPPP). HDF cells were seeded into fluorescence microtiter 96-well plates at a density of […] using serum-free media. After 80% confluence, HDF cells were treated with various concentrations of compounds and incubated for 24 h after 6 J/cm^2 of UV-A irradiation. Then, cells were washed three times with PBS and labeled with 13 μM DPPP (dissolved in DMSO) for 24 h at 37° C. in the dark. DPPP oxide fluorescence intensity was measured after 24 h at the excitation wavelength (Ex) of 361 nm and the emission wavelength (Em) of 380 nm using a GENios® fluorescence microplate reader (Tecan Austria GmbH, Salzburg, Austria).
The levels of lipid hydroperoxides in the presence and absence of chromenes were examined by using specific fluorescence probe, DPPP (FIG. 16). DPPP has been used as a sensitive method for measuring lipid hydroperoxides of cell membranes, since it successfully incorporates into membranes and oxidizes hydroperoxides to emit DPPP-oxide fluorescence.

IL-1β = IL-1β secretion ELISA in UV-A irradiated HDF; assay type: cell-based, human
Method: as §1, §2

HDF cells = assay: Phototoxicity determination (MTT, compounds present during UV-A); assay type: cell-based, human; settings: retinoic acid 5 μM during UV-A
Method: HDF cells are exposed to UV-A light in the presence of chromenes and retinoic acid in concentrations of 5, 10, and 20 μM and 1, 2, and 5 μM, respectively. After 24 h, cell viability was determined by MTT assay.
In order to determine whether compounds have phototoxic effect, the cell viability of dermal fibroblasts was evaluated using MTT assay. Cells were co cultured with compounds and retinoic acid during UV-A irradiation. […] Therefore, the concentration of 1 μM retinoic acid was selected as a positive control for further experiment.

[8] = A and B 5 to 20 μM, C 1 to 10 μM
[9] = Homo sapiens, retinoic acid 1 μM
[10] = Homo sapiens, HDF, retinoic acid 1 μM

## CC(C)=CCC/C(=C/CC/C(C)=C/CC[C@]1(C)CCc2cc(O)cc(C)c2O1)C(=O)O [Compound A, sargachromenol]
IL-6; [8]
  IL-6 secretion (in words): slightly reduced
IL-6; samples 10 μM
  Inhibition of IL-6 secretion (%): 11.11%
Hyaluronan synthase 1
  Hyaluronan synthase 1 amount: reduced
fibronectin
  Protection of fibronectin decomposition: not as significant as compound C
MMP-1; dose-dependent
  MMP-1 secretion (in words): significantly reduced
MMP-1; samples 10 μM
  MMP-1 inhibition (%): 27.76%
[1]; samples 10 μM
  Inhibition of protein oxidation (%): 30.57%
hyaluronan; samples 10 μM
  Hyaluronan (%): 16.67%
TNF-α [2]
  Inhibition of TNF-α expression: failed to show significant activity
[3]; samples 10 μM
  Fibroblasts protection (%): 37.25%
Type I procollagen; samples 10 μM
  Procollagen (%): 115.79%
TNF-α [4]; [8]
  TNF-α secretion (in words): slightly reduced
TNF-α [4]; samples 10 μM
  Inhibition of TNF-α secretion (%): 20.59%
[5]; samples 10 μM
  ROS scavenging (%): 38.58%
MMP-13; dose-dependent
  MMP-13 secretion (in words): significantly reduced
MMP-13; samples 10 μM
  MMP-13 inhibition (%): 23.82%
[6]; samples 10 μM
  Enhancement of GSH level (%): 23.17%
[7]; samples 10 μM
  Inhibition of lipid peroxidation (%): 15.63%
IL-1β; [8]
  IL-1β secretion (in words): slightly reduced
IL-1β; samples 10 μM
  Inhibition of IL-1β secretion (%): 10.07%

## CC1=C(/C=C/C(C)=C/C=C/C(C)=C/C(=O)O)C(C)(C)CCC1 [Retinoic acid, retinoic acid, reference compound]
IL-6; [9]
  inhibition at 1 µM: 14.1%
IL-6; at the same concentration (1 μM), UV-A irradiated HDF
  IL-6 level after treatment: 119 pg/mL
HDF cells
  Phototoxicity: a little phototoxic effect
MMP-1; [9]
  inhibition at 1 µM: 30.7%
[1]; [10]
  inhibition at 1 µM: 55.4%
hyaluronan; retinoic acid 1 μM
  Hyaluronan (%): 31.11%
[3]; retinoic acid 1 μM
  Fibroblasts protection (%): 12.21%
Type I procollagen; 1 μM, culture medium, UV-A irradiated HDF
  Type I procollagen secretion level: 60 ng/mL
Type I procollagen; retinoic acid 1 μM
  Procollagen (%): 57.89%
TNF-α [4]; [9]
  inhibition at 1 µM: 24.4%
[5]; retinoic acid 1 μM
  ROS scavenging (%): 46.60%
MMP-13; [9]
  inhibition at 1 µM: 37.1%
[6]; retinoic acid 1 μM
  Enhancement of GSH level (%): 15.85%
[7]; [10]
  inhibition at 1 µM: 21.6%
IL-1β; [9]
  inhibition at 1 µM: 6.71%
